Legend:
STAT5 = target: T1, STAT5 (Homo sapiens, UniProt P42229+P51692); set-up: endogenous in cells; host or cells: K562 nuclear extract; settings: K562 nuclear extract; cited from earlier work
T1 sequence (P42229 1-794): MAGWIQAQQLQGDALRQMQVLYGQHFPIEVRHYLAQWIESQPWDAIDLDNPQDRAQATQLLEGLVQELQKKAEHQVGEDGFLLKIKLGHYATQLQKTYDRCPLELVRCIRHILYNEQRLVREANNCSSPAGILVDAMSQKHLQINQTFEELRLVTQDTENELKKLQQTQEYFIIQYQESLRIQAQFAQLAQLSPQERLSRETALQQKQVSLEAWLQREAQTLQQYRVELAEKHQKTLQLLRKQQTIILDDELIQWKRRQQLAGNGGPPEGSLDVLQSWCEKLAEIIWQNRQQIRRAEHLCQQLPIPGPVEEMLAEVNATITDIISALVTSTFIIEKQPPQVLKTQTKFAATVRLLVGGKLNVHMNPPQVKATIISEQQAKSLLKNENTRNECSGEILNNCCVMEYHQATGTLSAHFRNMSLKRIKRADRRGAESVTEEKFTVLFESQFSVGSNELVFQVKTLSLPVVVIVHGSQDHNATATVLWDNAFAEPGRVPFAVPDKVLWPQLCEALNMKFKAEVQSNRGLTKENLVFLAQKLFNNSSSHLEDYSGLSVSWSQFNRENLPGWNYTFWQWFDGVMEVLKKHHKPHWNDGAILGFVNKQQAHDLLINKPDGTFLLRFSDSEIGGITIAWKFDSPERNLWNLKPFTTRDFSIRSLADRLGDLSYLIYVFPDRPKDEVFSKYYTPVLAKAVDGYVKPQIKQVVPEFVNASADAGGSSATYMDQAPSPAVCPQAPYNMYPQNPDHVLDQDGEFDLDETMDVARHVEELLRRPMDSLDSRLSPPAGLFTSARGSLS
T1 sequence (P51692 1-787): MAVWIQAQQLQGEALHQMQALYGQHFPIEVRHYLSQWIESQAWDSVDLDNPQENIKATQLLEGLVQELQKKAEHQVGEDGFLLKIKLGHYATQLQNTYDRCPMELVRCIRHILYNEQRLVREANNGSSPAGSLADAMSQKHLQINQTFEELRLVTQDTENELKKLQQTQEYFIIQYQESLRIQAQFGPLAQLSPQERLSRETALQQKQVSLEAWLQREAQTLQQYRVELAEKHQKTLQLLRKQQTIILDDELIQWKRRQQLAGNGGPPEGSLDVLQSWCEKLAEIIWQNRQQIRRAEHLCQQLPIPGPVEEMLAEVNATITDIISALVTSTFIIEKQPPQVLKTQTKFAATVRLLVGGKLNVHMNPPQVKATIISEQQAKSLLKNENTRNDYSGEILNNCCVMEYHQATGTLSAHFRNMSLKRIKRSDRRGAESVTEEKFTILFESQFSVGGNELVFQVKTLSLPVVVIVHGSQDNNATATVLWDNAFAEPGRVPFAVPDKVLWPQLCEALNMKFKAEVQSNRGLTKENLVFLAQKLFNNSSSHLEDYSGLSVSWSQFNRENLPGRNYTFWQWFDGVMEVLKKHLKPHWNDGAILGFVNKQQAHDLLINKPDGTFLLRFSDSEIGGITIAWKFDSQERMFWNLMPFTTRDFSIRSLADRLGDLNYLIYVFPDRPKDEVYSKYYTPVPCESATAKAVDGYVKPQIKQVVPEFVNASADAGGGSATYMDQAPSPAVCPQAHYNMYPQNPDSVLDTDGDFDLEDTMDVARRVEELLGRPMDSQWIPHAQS

SH2 domain of Lck = SH2 domain of Lck (Homo sapiens, UniProt P06239); settings: read-out: IC50 towards the SH2 domain of Lck; cited from earlier work
[1] = weight changes in mouse CIA model; format: in vivo, DBA/1J mice
Protocol: FIGS. 7A and 78 show graphs depicting weight changes in five groups of mouse CIA models under different treatment schemes. DBA/1 mice were randomly divided into 9 groups with 10 mice each group. On day 0 and 21, all of them except blank control group were inoculated with 50 ul collagen plus CFA mixture subcutaneously at back flank near tail. The weights of all 90 mice were monitored 3 times a week throughout the experiment.
Eight of nine groups (10 mice in each group) of male DBA/1J mice (age 9-10 weeks. H-2q haplotype) were subject to CIA model induction and then to different treatment schemes. The group of mice without CIA model induction was used as a control (Blank). Specifically, Bovine type II collagen (Chondrex) was mixed with Freund's complete adjuvant (CFA) (Sigma) and injected s.c. to flank near tail of the mice twice (the second injection was made 21 days after the first injection) to create CIA model mice. The eight groups of CIA model mice were separated into four prophylactic groups and four therapeutic groups, with each group subjected to different treatments.
In the four prophylactic groups, daily treatments started from the date when the first CIA induction injection was made. The first of the four prophylactic groups of CIA model mice were treated with 30% PEG300 (containing 4% DMSO-all 30% PEG300 in the application contains 4% DMSO) solution via intraperitoneal injection as controls (Model). The second of the four prophylactic groups of CIA model mice were treated with nicotinohydrazide (Calbiochem) 10 mg/kg in 30% PEG300 solution via intraperitoneal injection (573108 10 mg/kg). The third of the four prophylactic groups of CIA model mice were treated with nicotinohydrazide (Calbiochem) 5 mg/kg in 30% PEG300 solution via intraperitoneal injection (573108 5 mg/kg). The last of the four prophylactic groups of CIA model mice were treated with Tofacitinib (Selleckchem) 5 mg/kg in 30% PEG300 solution via intraperitoneal injection (Tofacitinib 5 mg/kg).
In the four therapeutic groups, daily treatments started from the date when the second CIA induction injection was made. The first of the four therapeutic groups of CIA model mice were treated with 30% PEG300 solution via intraperitoneal injection as controls (Model). The second of the four therapeutic groups of CIA model mice were treated with nicotinohydrazide (Calbiochem) 10 mg/kg in 30% PEG300 solution via intraperitoncal injection (573108 10 mg/kg). The third of the four therapeutic groups of CIA model mice were treated with nicotinohydrazide (Calbiochem) 5 mg/kg in 30% PEG300 solution via intraperitoneal injection (573108 5 mg/kg). The last of the four therapeutic groups of CIA model mice were treated with Tofacitinib (Selleckchem) 5 mg/kg in 30% PEG300 solution via intraperitoncal injection (Tofacitinib 5 mg/kg).
The inventors collected data of the weight, and clinical scores of the mice every 2-3 days and performed statistic analysis. The method used in the statistic analysis was Student's t test, unpaired, two-tailed analysis.

[2] = prophylactic groups, 5 mg/kg i.p. daily
[3] = prophylactic groups, 10 mg/kg i.p. daily
[4] = therapeutic groups, 5 mg/kg i.p. daily

Chain of SH2 domain of Lck (P06239 120-226 limits assumed): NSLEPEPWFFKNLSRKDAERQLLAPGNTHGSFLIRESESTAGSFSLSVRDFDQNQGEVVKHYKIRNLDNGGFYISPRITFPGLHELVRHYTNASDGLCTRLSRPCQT

In the case of `O=C(N/N=C/c1coc2ccccc2c1=O)c1cccnc1` [nicotinohydrazide, N′-((4-Oxo-4H-chromen-3-yl)methylene)nicotinohydrazide], the “STAT5/STAT5 DNA binding activity” value (STAT5) is given as “blocks”, the IC50 (SH2 domain of Lck) is given as greater than 500 µM and the “trend of weight changes, p vs Model” value [1, 2] is given as 0.4638. For the same molecule, the “trend of weight changes, p vs Tofacitinib 5 mg/kg” value [1, 2] was 0.0136, the “trend of weight changes, p vs Model” value [1, 3] was 0.32 and the “trend of weight changes, p vs Tofacitinib 5 mg/kg” value [1, 3] was 0.0207. The “trend of weight changes, p vs Model” value [1, 4] was less than 0.0001, the “trend of weight changes, p vs Tofacitinib 5 mg/kg” value [1, 4] was 0.0006 and the “trend of weight changes, p vs Model” value ([1]; therapeutic groups, 10 mg/kg i.p. daily) was less than 0.0001.

— patent publication US11612595B2, “Compositions and methods for treating rheumatoid arthritis” (Generos Biopharma Ltd., priority 2017, dated 2023)
